Patent US10399971B2, “Compound for treating or preventing hyperuricemia or gout” (JIANGSU ATOM BIOSCIENCE AND PHARMACEUTICAL CO., LTD., priority 2015, dated 2019)
Where “and” joins values, the source holds several entries; their conditions need not be identical. Equal entries are not always repeated. Where two headings read alike, the source gives them in different places.

Assays:
[1] = Pharmacokinetics following intravenous and oral administration in SD rats; type: in vivo
Source text: Dose formulation preparation for PO: Weight out the required amount of compound 74. Added approximately 70% of 0.5% CMC-Na with stirring, vortexing and sonication to mix well until visually well suspension. Then added the remaining vehicle to target total volume and vortex-mix.
Dose formulation preparation for IV: Weight out the required amount of compound 74. Added appropriate DMSO with sonication until dissolved, then added appropriate HP-β-Cyclodextrin water solution (20%, w/v) with vortexing to mix well.
Species: SD rats (SPF Level); sex: male; source: Sino-British SIPPR/BK Lab Animal Ltd., Shanghai.
The animals that dosed via orally were fasted overnight (10-14 hours) prior to oral administration. Food supply to the animals dosed orally were resumed 4 h post-dose.
Blood samples (approximately 250 μL/sample) were collected via jugular vein at Pre-dose and Post-dose (5 min, 15 min, 30 min, 1 h, 2 h, 4 h, 6 h, 8 h, and 24 h). Blood samples were placed into tubes containing sodium heparin and centrifuged conditions at 8000 rpm for 6 minutes at 2-8° C. to separate plasma from the samples. Plasma sample (50 μL) were transferred to tube, then 250 μL IS solution (200 ng/mL Tolbutamide) was added to it. After vortexing for 1 min and centrifuging for 5 min at 15000 rpm, 200 μL aliquots of supernatant were transferred to 96-well plate for LC-MS/MS analysis. The calibration curve of compound 74 was ranging from 1 to 1000 ng/mL. The LLOQ is 1 ng/mL for plasma.
A non-compartemental module of WinNonlin® Professional 5.2 was used to calculate parameters. The bioavailability was calculated as F %=(Dose(IV)×AUC(0-t)(PO))/(Dose(PO)×AUC(0-t)(IV))×100%.

[2] = test system: human normal liver cell line WRL-68; experiment: Cytotoxicity test on human normal liver cell line WRL-68 (Alamar Blue); type: cell-based; details: WRL68, WRL-68 cells, 120 h incubation, cell viability, read-out: half inhibitory concentration (IC50) against WRL-68
Experimental: 2.1 The normal liver cell lines L-02 and WRL-68 were cultured with DMEM culture medium (containing 10% of fetal bovine serum, 100 U/mL of penicillin and 0.1 mg/mL of streptomycin) in an incubator under 5% CO2 at 37° C. until the cell density was about 90%, respectively.
2.3 Tested compounds and benzbromarone at different concentration gradients were prepared by using the DMEM culture medium and added into wells at 100 μL/well as compounds wells. The DMEM culture medium was added into wells at 100 μL/well without tested compound as negative control wells.
This 10× Alamar Blue solution was diluted into 1× Alamar Blue solution with phenol red free DMEM culture medium before use.
2.5 The cells were washed with PBS (0.1 M, pH=7.4) twice. The Alamar Blue solution was added into wells at 100 μL/well. 100 μL of Alamar Blue solution was added into wells without cells to serve as blank control wells. The 96-well plate was placed in an incubator under 5% CO2 at 37° C. for 3 h. Each concentration of compound was repeated three times during the test.
The fluorescence value of the cells containing compound is the F(test compound); the fluorescence value of the cells without compound as blank control is the F(blank control); the fluorescent value of the cells from negative control group is F(negative control). The average value and standard deviation of cell viability of three repeated concentrations was calculated by the following formula: […]
2.7 The half inhibitory concentration (IC50) of the compound for the cells L-02 and WRL-68 was obtained from the cell viability by Prism Graph software.

in vivo = details: both, SD, rat, po
Source text: Rats were randomly divided into group A1, group B1 and blank control group. Each group has 10 of rats with half male and half female.

[3] = IV 1 mg/kg, individual rats 201-203, 1 mg/kg
[4] = PO 10 mg/kg, individual rats 101-103, 10 mg/kg

For `CCc1nc2ccccn2c1C(=O)c1cc(Br)c(O)c(C#N)c1` [Compound 74, 3-bromo-5-(2-ethylimidazo[1,2-a]pyridine-3-carbonyl)-2-hydroxybenzonitrile hydrogen chloride], the “Clz” value ([1]; IV 1 mg/kg, Mean of 3 rats) was 0.10818 L/h/kg, the “AUC(0-t)” value [1, 3] was 9.07684 µg·h/mL and 8.84727 µg·h/mL and the “Clz” value [1, 3] was 0.11023 L/h/kg and 0.10566 L/h/kg and 0.10865 L/h/kg. For the same compound, the “Cmax” value [1, 3] was 6.70553 µg/mL and 6.88521 µg/mL, the “MRT(0-∞)” value [1, 3] was 5.60 h and the “Vz” value [1, 3] was 0.91779 L/kg and 0.93449 L/kg. For the same compound, the “t1/2” value [1, 3] was 6.00 h, the “F (%)” value ([1]; PO 10 mg/kg vs IV 1 mg/kg, from AUC(0-t), individual rats 101-103) was 108.04% and 100.28% and the “AUC(0-t)” value [1, 4] was 96.18883 µg·h/mL and 89.2842 µg·h/mL. For the same compound, the “Cmax” value [1, 4] was 6.97614 µg/mL and 8.25174 µg/mL, the “MRT(0-∞)” value [1, 4] was 6.80 h and 6.00 h and the “Tmax” value [1, 4] was 2.00 h and 6.00 h. The “t1/2” value [1, 4] was 3.00 h and 2.70 h, the half-life ([1]; male, SD, rat, plasma, iv, 1 mg/kg, IV 1 mg/kg, Mean of 3 rats) was 5.8 h and the AUC(0-t) ([1]; male, SD, rat, plasma, iv, 1 mg/kg, IV 1 mg/kg, Mean of 3 rats, read-out: AUC(0-t)) was 8.9 µg·h/mL. The Cmax ([1]; male, SD, rat, plasma, iv, 1 mg/kg, IV 1 mg/kg, Mean of 3 rats, read-out: Cmax) was 6.36 µg/mL, the MRT inf ([1]; male, SD, rat, plasma, iv, 1 mg/kg, IV 1 mg/kg, Mean of 3 rats, read-out: MRT(0-∞)) was 5.5 h and the Tmax ([1]; male, SD, rat, plasma, iv, 1 mg/kg, IV 1 mg/kg, Mean of 3 rats, read-out: Tmax) was 0.1 h. For the same compound, the Vd ([1]; male, SD, rat, plasma, iv, 1 mg/kg, IV 1 mg/kg, Mean of 3 rats, read-out: Vz) was 0.904 L/kg, the half-life ([1]; male, SD, rat, plasma, iv, 1 mg/kg, IV 1 mg/kg, individual rats 201-203) was 5.4 h and the AUC(0-t) ([1]; male, SD, rat, plasma, iv, 1 mg/kg, IV 1 mg/kg, individual rats 201-203, read-out: AUC(0-t)) was 8.79 µg·h/mL. For the same compound, the Cmax ([1]; male, SD, rat, plasma, iv, 1 mg/kg, IV 1 mg/kg, individual rats 201-203, read-out: Cmax) was 5.49 µg/mL, the MRT inf ([1]; male, SD, rat, plasma, iv, 1 mg/kg, IV 1 mg/kg, individual rats 201-203, read-out: MRT(0-∞)) was 5.4 h and the Tmax ([1]; male, SD, rat, plasma, iv, 1 mg/kg, IV 1 mg/kg, individual rats 201-203, read-out: Tmax) was 0.1 h. The Vd ([1]; male, SD, rat, plasma, iv, 1 mg/kg, IV 1 mg/kg, individual rats 201-203, read-out: Vz) was 0.859 L/kg, the bioavailability ([1]; male, SD, rat, plasma, po, 10 mg/kg, PO 10 mg/kg vs IV 1 mg/kg, from AUC(0-t), Mean of 3 rats) was 103% and the bioavailability ([1]; male, SD, rat, plasma, po, 10 mg/kg, PO 10 mg/kg vs IV 1 mg/kg, from AUC(0-t), individual rats 101-103) was 101%. For the same compound, the half-life ([1]; male, SD, rat, plasma, po, 10 mg/kg, PO 10 mg/kg, Mean of 3 rats) was 2.9 h, the AUC(0-t) ([1]; male, SD, rat, plasma, po, 10 mg/kg, PO 10 mg/kg, Mean of 3 rats, read-out: AUC(0-t)) was 91.8 µg·h/mL and the Cmax ([1]; male, SD, rat, plasma, po, 10 mg/kg, PO 10 mg/kg, Mean of 3 rats, read-out: Cmax) was 8.14 µg/mL. For the same compound, the MRT inf ([1]; male, SD, rat, plasma, po, 10 mg/kg, PO 10 mg/kg, Mean of 3 rats, read-out: MRT(0-∞)) was 6.3 h, the Tmax ([1]; male, SD, rat, plasma, po, 10 mg/kg, PO 10 mg/kg, Mean of 3 rats, read-out: Tmax) was 3.3 h and the half-life ([1]; male, SD, rat, plasma, po, 10 mg/kg, PO 10 mg/kg, individual rats 101-103) was 2.9 h. The AUC(0-t) ([1]; male, SD, rat, plasma, po, 10 mg/kg, PO 10 mg/kg, individual rats 101-103, read-out: AUC(0-t)) was 89.9 µg·h/mL, the Cmax ([1]; male, SD, rat, plasma, po, 10 mg/kg, PO 10 mg/kg, individual rats 101-103, read-out: Cmax) was 9.21 µg/mL and the MRT inf ([1]; male, SD, rat, plasma, po, 10 mg/kg, PO 10 mg/kg, individual rats 101-103, read-out: MRT(0-∞)) was 5.9 h. For the same compound, the IC50 [2] was > 100 µM and the MTD at 14 days (in vivo) was 5000 mg/kg.
